From patent US20080248470A1, “GENETIC SCREENING FOR PREDICTING ANTIDEPRESSANT DRUG RESPONSE BASED ON THE MONOAMINE TRANSPORTER GENE POLYMORPHISM COMBINATION” (SUNGKYUNKWAN UNIVERSITY Foundation for Corporate …, priority 2007, published 2008)
“And” between values parts separate entries of the source, which are not always exact repeats. Identical values can stand only once. Like-named read-outs stand apart in the source and are kept apart here.

Columns and labels:
[1] = plasma drug levels by HPLC-MS/MS, trough samples at end of week 4
[2] = system: patients with major depressive episode; conditions: for change in depression score (HAM-D), FIG. 2: after 6 weeks
Protocol: In the present invention, experiments were conducted on patients other than the patient group of a prior report (reference 6). The patient subjects who participated in the experiments of the present invention were all […] and were enrolled in the Clinical Trials Program of the Samsung Medical Center Geropsychiatry and Affective Disorder Clinics (Seoul Korea). The affective disorder section of the Samsung Psychiatric Evaluation Schedule (SPES) uses the Korean version of the Structured Clinical Interview for DSM-IV Axis-I disorders (SCID-IV; 4th edition, reference 17).
In the present invention, at least one family member who is living with the patient was interviewed to supplement the patient's report of symptoms, behaviors, level of functioning, duration of episode, and recent treatments. The patient subjects who participated in the experiments of the present invention all fulfilled DSM-IV criteria for major depressive episode, the Korean version of the Structured Clinical Interview for DSM-IV Axis-I disorders (4th edition). Diagnoses were confirmed by a board certified psychiatrist on the basis of the SPES, case review notes, and other relevant data. A minimum baseline 17-item Hamilton depression scale (HAM-D) score of 15 was required.
Patient subjects, who received other psychotropic medications within 2 weeks of the study or fluoxetine within 4 weeks, were excluded. In the present invention, potential subjects were excluded for pregnancy, significant medical conditions, abnormal laboratory baseline values, unstable psychiatric features (e.g., suicidality), history of alcohol or drug dependence, seizures, head trauma with loss of consciousness, neurologic illness, or concomitant Axis I psychiatric disorder. The protocol was approved by the ethics review board of Samsung Medical Center, Seoul, Korea. Signed informed consent was obtained from all participants.
Dose titration was completed within 2 weeks.
Remission was defined as a HAM-D of less than 8 at 6 weeks (reference 19).
In the present invention, 208 patients (86% of the original participants) completed the six-week treatment trial. Sixteen patients receiving NRI treatment and 17 patients receiving SSRI treatment dropped out. […] Ten patients were excluded, either because their plasma drug concentrations were undetectable, consistent with noncompliance (N=6) or were in the range consistent with extensive drug metabolism (<200 ng/ml norfluoxetine-fluoxetine and <30 ng/ml sertraline, N=4) (reference 20). […] These 33 dropouts were excluded in data analyses.
Genomic DNA was extracted from whole blood using a Wizard Genomic Purification kit (Promega, Madison, Wis., USA). The present inventors analyzed the genotype of the 5-HTT promoter s/l polymorphism (5-HTTLPR), the genotype of the 5-HTT intron 2 s/l polymorphism, and the NET G1287A polymorphism in exon 9. For this purpose, the G1287A polymorphism in exon 9 was amplified by PCR with primers of SEQ ID NO: 1 and SEQ ID NO: 2 and digested by restriction enzyme Sau96I.

Compound | Plasma levels (mean ±SD) ([1]; non-responders) | Plasma levels (mean ±SD) ([1]; responders) | Response rate ([2]; 5-HTT promoter (5-HTTLPR) ss genotype, 6 weeks, listed as NRI) | Response rate ([2]; NET A carrier + 5-HTT promoter l carrier, any intron 2 genotype) | Response rate ([2]; NET A carrier + 5-HTT promoter ss, any intron 2 genotype) | Response rate ([2]; NET G1287A AA genotype, 6 weeks) | Response rate ([2]; NET G1287A GA genotype, 6 weeks) | Response rate ([2]; NET G1287A GA+AA genotypes (A allele carriers), 6 weeks) | Response rate ([2]; NET G1287A GA+AA genotypes (A allele carriers), 6 weeks, listed as NRI) | change in depression score (HAM-D), FIG. 2 ([2]; NET G1287A GA+AA genotypes) | change in depression score (HAM-D), FIG. 2 ([2]; NET G1287A GG genotype) | Rate of remission (HAM-D of less than 8 at 6 weeks) ([2]; all patients who completed the 6-week trial) | Response rate (50% or greater decrease in HAM-D score at 6 weeks) ([2]; all patients who completed the 6-week trial, listed as NRI) | expected treatment success rate when prescribed on NET G1287A examination ([2]; patient having the GG genotype)
CNCCC=C1c2ccccc2CCc2ccccc21 [nortriptyline] | 123 ± 23 ng/mL | 116 ± 21 ng/mL | 76% and 38/50(76.0) % | 22% | 63% | 4/6(66.7) % | 16/41(39.0) % | 43% | 42.6% | 0.11 | 0.14 | 29% | 62% and 55/89 (61.8) % | 83.35%
CN[C@H]1CC[C@@H](c2ccc(Cl)c(Cl)c2)c2ccccc21 [sertraline] | 72 ± 28 ng/mL | 75 ± 29 ng/mL |  |  |  |  |  |  |  |  |  |  |  | 
